Test results reported in patent US8884030B2, “Inhibitors of Flaviviridae viruses” (priority 2010, dated 2014).

Test system: human hepatoma Huh-7 cell line harboring a HCV replicon
Experiment: HCV replicon assay (inhibition of viral replication, luciferase)
Type: cell-based
Settings: Hepatitis C virus, 72 h; 2 μM; Huh-7 HCV replicon cells, 3 days incubation; inhibition of viral replication; read-out: % inhibition at 2 μM
How it was run: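 Huh-7 replicon cells (1600/well) exposed 3 days at 37 °C to 10-point 3-fold dilutions, 0.44% DMSO. Replication measured by Dual-Glo luciferase, background from ITMN-191 wells; cytotoxicity by calcein AM. EC50/CC50 from Hill fit; % inhibition at fixed concentration derivable from fit.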

CC(C)(C)C#Cc1cc(N(C(=O)[C@H]2CC[C@H](C)CC2)[C@H]2CCN(C(=O)OC3CCN(C(=O)OC(C)(C)C)CC3)C2)c(C(=O)O)s1 [Compound 39, 4-{3-(S)-[[2-carboxy-5-(3,3-dimethyl-but-1-ynyl)-thiophen-3-yl]-(4-trans-methyl-cyclohexanecarbonyl)-amino]-pyrrolidine-1-carbonyloxy}-piperidine-1-carboxylic acid tert-butyl ester]
inhibition at 2 µM: 98.8%

CC1CCC(C(=O)N(c2cc(C#CC(C)(C)C)sc2C(=O)O)N(C)CC2CCOCC2)CC1 (stereo not drawn) [Compound 131, 5-(3,3-dimethyl-but-1-ynyl)-3-[N′-methyl-N-(4-methyl-cyclohexanecarbonyl)-N′-(tetrahydro-pyran-4-ylmethyl)-hydrazino]-thiophene-2-carboxylic acid]
inhibition at 2 µM: 99.9%

CC1CCC(C(=O)N(c2cc(C#CC(C)(C)C)sc2C(=O)O)N(CCO)C2COC2)CC1 (stereo not drawn) [Compound 134, 5-(3,3-dimethyl-but-1-ynyl)-3-[N′-(2-hydroxy-ethyl)-N-(4-methyl-cyclohexanecarbonyl)-N′-oxetan-3-yl-hydrazino]-thiophene-2-carboxylic acid]
inhibition at 2 µM: 99%

CC1CCC(C(=O)N(c2cc(C#CC(C)(C)C)sc2C(=O)O)N(C)[C@H]2CC[C@@H](O)CC2)CC1 (stereo partly drawn) [Compound 123, 3-(2-(4-hydroxycyclohexyl)-2-methyl-1-(4-methylcyclohexanecarbonyl)hydrazinyl)-5-(3,3-dimethylbut-1-ynyl)thiophene-2-carboxylic acid]
inhibition at 2 µM: 99.9%

CC(C)(C)C#Cc1cc(N(C(=O)[C@H]2CC[C@H](C)CC2)C2CCN(C(=O)O[C@H]3CO[C@H]4OCC[C@H]43)CC2)c(C(=O)O)s1 [Compound 36, 4-[[2-carboxy-5-(3,3-dimethyl-but-1-ynyl)-thiophen-3-yl]-(4-methyl-cyclohexanecarbonyl)-amino]-piperidine-1-carboxylic acid hexahydro-furo[2,3-b]furan-3-(R)-yl ester]
inhibition at 2 µM: 100%

C[C@@H](CCNC(=O)O[C@@H]1CCOC1)N(c1cc(C#CC(C)(C)C)sc1C(=O)O)C(=O)[C@H]1CC[C@H](C)CC1 [Compound 65, 5-(3,3-dimethyl-but-1-ynyl)-3-[[trans-4-methyl-cyclohexanecarbonyl)-[1-(S)-methyl-3-(tetrahydrofuran-3-yloxycarbonylamino)-propyl]-amino]-thiophene-2-carboxylic acid]
inhibition at 2 µM: 99.9%

CC(C)(C)C#Cc1cc(N(C(=O)[C@H]2CC[C@H](C)CC2)C2CCC(=NOCC(=O)O)CC2)c(C(=O)O)s1 (stereo partly drawn) [Compound 115, 3-(N-(4-(Carboxymethoxyimino)cyclohexyl)-4-methylcyclohexanecarboxamido)-5-(3,3-dimethylbut-1-ynyl)thiophene-2-carboxylic acid]
inhibition at 2 µM: 99.8%

CC(C)(C)C#Cc1cc(N(C(=O)[C@H]2CC[C@H](C)CC2)C2CCC(=NOCc3ccccn3)CC2)c(C(=O)O)s1 (stereo partly drawn) [Compound 112, 5-(3,3-Dimethyl-but-1-ynyl)-3-{(4-trans-methyl-cyclohexanecarbonyl)-[4-(pyridin-2-ylmethoxyimino)-cyclohexyl]-amino}-thiophene-2-carboxylic acid]
inhibition at 2 µM: 99.9%

CC(C)(C)C#Cc1cc(N(C(=O)[C@H]2CC[C@H](C)CC2)[C@H]2CCN(C(=O)OC3CCOCC3)C2)c(C(=O)O)s1 [Compound 41, 3-(S)-[[2-carboxy-5-(3,3-dimethyl-but-1-ynyl)-thiophen-3-yl]-(4-trans-methyl-cyclohexanecarbonyl)-amino]-pyrrolidine-1-carboxylic acid tetrahydro-pyran-4-yl ester]
inhibition at 2 µM: 99.9%

CC(C)(C)C#Cc1cc(N(C(=O)[C@H]2CC[C@H](C)CC2)[C@H]2CCN(C(=O)O[C@H]3CO[C@H]4OCC[C@H]43)C2)c(C(=O)O)s1 [Compound 35, 3-(S)-[[2-Carboxy-5-(3,3-dimethyl-but-1-ynyl)-thiophen-3-yl]-(4-methyl-cyclohexanecarbonyl)-amino]-pyrrolidine-1-carboxylic acid hexahydro-furo[2,3-b]furan-3-(R)-yl ester]
inhibition at 2 µM: 99.8%

CN([C@H]1CC[C@H](N(c2cc(C#CC(C)(C)C)sc2C(=O)O)C(=O)[C@H]2CC[C@H](C)CC2)CC1)S(=O)(=O)c1cccnc1 [Compound 164, 5-(3,3-dimethyl-but-1-ynyl)-3-((4-trans-methyl-cyclohexanecarbonyl)-{4-trans-[methyl-(pyridine-3-sulfonyl)-amino]-cyclohexyl}-amino)-thiophene-2-carboxylic acid]
inhibition at 2 µM: 98.9%

CC1CCC(C(=O)N(c2cc(C#CC(C)(C)C)sc2C(=O)O)N(C)CCOc2cccnc2)CC1 (stereo not drawn) [Compound 130, 5-(3,3-dimethyl-but-1-ynyl)-3-{N′-methyl-N-(4-methyl-cyclohexanecarbonyl)-N′-[2-(pyridin-3-yloxy)-ethyl]-hydrazino}-thiophene-2-carboxylic acid]
inhibition at 2 µM: 98.7%

CC(C)(C)C#Cc1cc(N(C(=O)[C@H]2CC[C@H](C)CC2)C2CCN(C(=O)O[C@@H]3CCCN(C(=O)OC(C)(C)C)C3)CC2)c(C(=O)O)s1 [Compound 51, Boc protected 4-[[2-carboxy-5-(3,3-dimethyl-but-1-ynyl)-thiophen-3-yl]-(4-trans-methyl-cyclohexanecarbonyl)-amino]-piperidine-1-carboxylic acid piperidin-3-(R)-yl ester]
inhibition at 2 µM: 85.5%

CC1CCC(C(=O)N(c2cc(C#CC(C)(C)C)sc2C(=O)O)C2CCC(NN(C)c3nccs3)CC2)CC1 (stereo not drawn) [Compound 81, 5-(3,3-Dimethyl-but-1-ynyl)-3-{(4-methyl-cyclohexanecarbonyl)-[4-(N′-methyl-N′-thiazol-2-yl-hydrazino)-cyclohexyl]-amino}-thiophene-2-carboxylic acid]
inhibition at 2 µM: 100%

CC(C)(C)C#Cc1cc(N(C(=O)[C@H]2CC[C@H](C)CC2)C2CCC(=NOCn3cncn3)CC2)c(C(=O)O)s1 (stereo partly drawn) [Compound 114, 3-(N-(4-((1H-1,2,4-Triazol-1-yl)methoxyimino)cyclohexyl)-4-methylcyclohexanecarboxamido)-5-(3,3-dimethylbut-1-ynyl)thiophene-2-carboxylic acid]
inhibition at 2 µM: 100%

CC(C)(C)C#Cc1cc(N(C(=O)[C@H]2CC[C@H](C)CC2)C2CCC(NC(=O)OC3CCN(C(=O)OC(C)(C)C)CC3)CC2)c(C(=O)O)s1 (stereo partly drawn) [Compound 44, 4-{4-[[2-carboxy-5-(3,3-dimethyl-but-1-ynyl)-thiophen-3-yl]-(4-trans-methyl-cyclohexanecarbonyl)-amino]-cyclohexylcarbamoyloxy}-piperidine-1-carboxylic acid tert-butyl ester]
inhibition at 2 µM: 100%

CC(C)(C)C#Cc1cc(N(C(=O)[C@H]2CC[C@H](C)CC2)C2CCN(C(=O)OC3(C)CCNC3)CC2)c(C(=O)O)s1 (stereo partly drawn) [Compound 72, 4-[[2-Carboxy-5-(3,3-dimethyl-but-1-ynyl)-thiophen-3-yl]-(trans-4-methyl-cyclohexanecarbonyl)-amino]-piperidine-1-carboxylic acid 3-methyl-pyrrolidin-3-yl ester]
inhibition at 2 µM: 99.7%

CC(C)(C)C#Cc1cc(N(C(=O)[C@H]2CC[C@H](C)CC2)C2CCC(NC(=O)OC3CCNCC3)CC2)c(C(=O)O)s1 (stereo partly drawn) [Compound 45, 5-(3,3-dimethyl-but-1-ynyl)-3-{(4-trans-methyl-cyclohexanecarbonyl)-[4-(piperidin-4-yloxycarbonylamino)-cyclohexyl]-amino}-thiophene-2-carboxylic acid]
inhibition at 2 µM: 100%

CC1CCC(C(=O)N(c2cc(C#CC(C)(C)C)sc2C(=O)O)C2CCC(NN(C)c3ccc(O)nn3)CC2)CC1 (stereo not drawn) [Compound 82, 5-(3,3-Dimethyl-but-1-ynyl)-3-[{4-[N′-(6-hydroxy-pyridazin-3-yl)-N′-methyl-hydrazino]-cyclohexyl}-(4-methyl-cyclohexanecarbonyl)-amino]-thiophene-2-carboxylic acid]
inhibition at 2 µM: 100%

CN(NC1CCC(N(c2cc(C#CC(C)(C)C)sc2C(=O)O)C(=O)[C@H]2CC[C@H](C)CC2)CC1)c1cnccn1 (stereo partly drawn) [Compound 80, 5-(3,3-Dimethyl-but-1-ynyl)-3-{(4-methyl-cyclohexanecarbonyl)-[4-(N′-methyl-N′-pyrazin-2-yl-hydrazino)-cyclohexyl]-amino}-thiophene-2-carboxylic acid]
inhibition at 2 µM: 99.8%

CC1CCC(C(=O)N(c2cc(C#CC(C)(C)C)sc2C(=O)O)N(C)c2ccccn2)CC1 (stereo not drawn) [Compound 137, 5-(3,3-dimethyl-but-1-ynyl)-3-[N′-methyl-N-(4-methyl-cyclohexanecarbonyl)-N′-pyridin-2-yl-hydrazino]-thiophene-2-carboxylic acid]
inhibition at 2 µM: 100%
